Results from patent US20050181516A1, “Bioequivalence determination using expression profiling” (priority 2002, published 2005).
Entries after “also recorded” stand apart in the source; their conditions may differ.

Tested on: gene expression (mRNA) in peripheral blood (lymphocytes)
Assay: Gene expression profiling (Affymetrix DNA microarrays) of blood samples of psoriatic patients before and after oral ASM981
Assay type: in vivo, human
Settings: for Mean fold variation: day 13/14 vs baseline
Experimental: The dose used was 60 mg/day, given as 30 mg twice a day (b.i.d.). To make this dose the […] tablets were cut in half using a special cutter (Tablettenteiler NR.96) so as to obtain 30 mg of ASM981 or a matched amount of placebo.
ASM981 was evaluated as treatment for psoriasis using an oral dose of 60 mg (30 mg b.i.d) during a 4 weeks clinical study. The oral formulation used was a highly standardized oral dosage form that could be produced in large amounts and with a highly uniform composition, this was oral formulation A.
The cohort included 10 patients; 8 received oral formulation A and 2 received a placebo. Blood samples were collected before the first administration to establish the gene expression baseline and on days 13 or 14 after treatment with ASM981 or placebo and submitted to gene expression analysis in order to gain insights into the mechanisms of action of the compound.
The RNA from each of the blood samples was extracted and tested on individual DNA microarrays, thus allowing, for each patient, a comparison of gene expression before and after ASM981 treatment. […] Genes that were consistently modulated, i.e., change greater then a factor of two, were sorted in functional categories. Table 4 lists all the identified genes with their symbol, Unigene cluster number, protein accession number and the GenBank accession number for the sequence used to design the Affymetrix probes.
The extraction of the RNA from the samples, the preparation of the target, the hybridization and the analysis of the arrays, were performed according to the methods and protocols recommended by Affymetrix. Total RNA was extracted from the blood samples (lymphocytes) collected on days 0 and 14 using TRIZOL™ (Life Technologies), and purified through RNEASY™ columns (Qiagen) as needed. Good quality total RNA ([…]) was used to synthesize double-stranded cDNA using the SUPERSCRIPT CHOICE SYSTEM™ (Life Technologies). The cDNA was then in vitro transcribed (MEGASCRIPT™ T7 Kit, Ambion) to form biotin-labeled cRNA. The quality of the cRNA was checked on a test array according to the recommendation of Affymetrix. Next, […] of labeled cRNA were hybridized to the probe arrays for 16 hours at 45° C. Arrays were then washed according to the EukGE-WS2 protocol (Affymetrix), and stained with […] of streptavidin-phycoerythrin conjugate (Molecular Probes). The signal was antibody amplified with 2 mg/mL acetylated BSA (Life Technologies), 100 mM MES, 1 M [Na+], 0.05% Tween 20, 0.005% Antiofoam (Sigma), 0.1 mg/mL goat IgG and 0.5 mg/mL biotinylated antibody and re-stained with the streptavidin solution. After washing, the arrays were scanned twice with the GENE ARRAY® scanner (Affymetrix).
The data were analyzed comparing, for each individual patient, the gene expression levels before and after treatment. Only genes that were consistently modulated in at least 5 patients were considered as relevant. These variations were also compared with the gene expression changes observed in the placebo treated patients. During analysis, one chip (patient 44 before treatment) appeared to have very few correctly hybridized genes, and to introduce a bias into the analysis. This pair was excluded to establish average fold change.

- expression of inflammatory mediators (Leukotriene A4 hydrolase, Prostaglandin endoperoxide synthase) (blood cells): strongly down regulate
- genes involved in asthma physiopathology (RANTES, GALECTIN-3, Thromboxane A2 receptor) (blood cells): markedly down regulated
Compound: CC[C@@H]1/C=C(\C)C[C@H](C)C[C@H](OC)[C@H]2O[C@@](O)(C(=O)C(=O)N3CCCC[C@H]3C(=O)O[C@H](/C(C)=C/[C@@H]3CC[C@H](Cl)[C@H](OC)C3)[C@H](C)[C@@H](O)CC1=O)[C@H](C)C[C@@H]2OC [ASM981, 33-Epichloro-33-desoxy-ascomycin]
- Mean fold variation (4-1BB ligand (TNFSF9) mRNA, blood): +2.3 fold
- Mean fold variation (ADP/ATP translocase (SLC25A6) mRNA, blood): −3.7 fold
- Mean fold variation (ALu RNA binding protein (SRP14) mRNA, blood): −2.9 fold
- Mean fold variation (B7 protein (B7) mRNA, blood): +2.9 fold
- Mean fold variation (BAP 31 (DXS1357E) mRNA, blood): −9.2 fold
- Mean fold variation (BRCA2 (gene symbol ARPC2) mRNA, blood): −6.5 fold
- Mean fold variation (Butyrophilin BTF5 (BTN3A1) mRNA, blood): −10.6 fold
- Mean fold variation (CAMLG (calcium modulating cyclophilin ligand) mRNA, blood): −5.2 fold
- Mean fold variation (CAPL/S100A4 mRNA, blood): −37.8 fold
- Mean fold variation (CDC10 homologue (CDC10) mRNA, blood): −6 fold
- Mean fold variation (COX6B mRNA, blood): −13.6 fold
- Mean fold variation (CSF-1 (CSF1) mRNA, blood): +3.1 fold
- Mean fold variation (Calmodulin (CALM2) mRNA, blood): −28.8 fold
- Mean fold variation (Clone × 101 (MAP1A) mRNA, blood): +2.2 fold
- Mean fold variation (Cyclin D2 (CCND2) mRNA, blood): −16.6 fold
- Mean fold variation (Cyclin D3 (CCND3) mRNA, blood): −7.2 fold
- Mean fold variation (Cystatin A (CSTA) mRNA, blood): −2.4 fold
- Mean fold variation (Cystatin C (CST3) mRNA, blood): −25 fold
- Mean fold variation (Cytochrome c oxidase subunit IV (COX4) mRNA, blood): −15.8 fold
- Mean fold variation (Cytochrome c oxidase subunit VIc (COX6C) mRNA, blood): −21.1 fold
- Mean fold variation (DARC (FY) mRNA, blood): +7 fold
- Mean fold variation (EF-1, Elongation factor 1 delta (EEF1D) mRNA, blood): −12.4 fold
- Mean fold variation (Epididymal secretory protein mRNA, blood): −19.6 fold
- Mean fold variation (FC-epsilon binding protein Galectin 3 (LGALS3) mRNA, blood): −21 fold
- Mean fold variation (Farnesyl transferase (FNTA) mRNA, blood): −9 fold
- Mean fold variation (Ferritin (FTL) mRNA, blood): −4.4 fold
- Mean fold variation (G gamma 11 (GNG11) mRNA, blood): −6.2 fold
- Mean fold variation (GPR-9 CCR9 mRNA, blood): +3.4 fold
- Mean fold variation (Gamma actin (ACTG1) mRNA, blood): −3.4 fold
- Mean fold variation (Glutamine synthase (GLUL) mRNA, blood): −2.6 fold
- Mean fold variation (Glutathione peroxidase mRNA, blood): −5.4 fold
- Mean fold variation (HLA-DR (HLA-DRA) mRNA, blood): −3.2 fold
- Mean fold variation (HLA-E mRNA, first of 2 sequences, blood): −23.4 fold
- Mean fold variation (HLA-E mRNA, second of 2 sequences, blood): −4.2 fold
- Mean fold variation (HLA-F mRNA, blood): −10.2 fold
- Mean fold variation (HLA-I A 26 (HLA-A) mRNA, blood): −4.1 fold
- Mean fold variation (HLA-I C (HLA-C) mRNA, blood): −2.9 fold
- Mean fold variation (HLH G0S8 (RGS2) mRNA, blood): −10.8 fold
- Mean fold variation (HMG-17 (HMG17) mRNA, blood): −15.5 fold
- Mean fold variation (Histone H2 (H2AFL) mRNA, blood): −42.6 fold
- Mean fold variation (Histone H3.3 (H3F3A) mRNA, blood): −6.6 fold
- Mean fold variation (Ii Invariant chain, CD74 mRNA, blood): −46.4 fold
- Mean fold variation (KIAA0 151 (IKKE) mRNA, blood): +2.5 fold
- Mean fold variation (KIAA0055 (USP8) mRNA, blood): +3.7 fold
- Mean fold variation (Kallistatin mRNA, blood): +3.3 fold
- Mean fold variation (L-selectin (SELL) mRNA, blood): −46.6 fold
- Mean fold variation (LAMP-1 (LAMP1) mRNA, blood): −19.1 fold
- Mean fold variation (LAPT5 Lysosomal associated protein (LAPTM5) mRNA, blood): −12.5 fold
- Mean fold variation (LFA1a (ITGAL) mRNA, blood): −16.1 fold
- Mean fold variation (LFA1b (ITGB2) mRNA, blood): −8.3 fold
- Mean fold variation (Lactate dehydrogenase (LDHB) mRNA, blood): −17.1 fold
- Mean fold variation (Laminin receptor (LAMR1) mRNA, blood): −7.3 fold
- Mean fold variation (Leukotriene A4 hydrolase (LTA4H) mRNA, blood): −8 fold
- Mean fold variation (Lone HH109 mRNA, blood): +2 fold
- Mean fold variation (MIC-2 CD99 (MIC2) mRNA, blood): −65 fold
- Mean fold variation (MTf1 Mitochondrial transcription factor (TFAM) mRNA, blood): +3.2 fold
- Mean fold variation (Macrophilin 12 FKBP (FKBP1A) mRNA, blood): −66.2 fold
- Mean fold variation (Mitochondrial ubiquinone binding protein (first entry, M26730) mRNA, blood): −5.4 fold
- Mean fold variation (Mitochondrial ubiquinone binding protein (second entry of Table 11) mRNA, blood): +6.6 fold
- Mean fold variation (Myosin light chain non muscle type mRNA, blood): −15.6 fold
- Mean fold variation (Myosin regulatory light chain (MLCB) mRNA, blood): −8.5 fold
- Mean fold variation (NRGN Neuragranin mRNA, blood): −3.1 fold
- Mean fold variation (Neutrophil cytochrome b light chain (CYBA) mRNA, blood): −34.7 fold
- Mean fold variation (Non muscle-type cofilin (CFL1) mRNA, blood): −2.9 fold
- Mean fold variation (Nuclear factor Nf-IL6 (CEBPB) mRNA, blood): −6.8 fold
- Mean fold variation (Nucleosome assembly protein (NAP1L1) mRNA, blood): −7.7 fold
- Mean fold variation (PF-4 (PF4V1) mRNA, blood): −5.2 fold
- Mean fold variation (Platelet glycoprotein IIb (ITGA2B) mRNA, blood): −5.2 fold
- Mean fold variation (Platelet glycoprotein Ib mRNA, blood): −26.6 fold
- Mean fold variation (Prosaposin (PSAP) mRNA, blood): −56.1 fold
- Mean fold variation (Prostaglandin endoperoxide synthase 1 (PTGS1) mRNA, blood): −45.9 fold
- Mean fold variation (Proteoglycan core protein (PRG1) mRNA, blood): +49 fold
- Mean fold variation (Prothymosin alpha (PTMA) mRNA, blood): −71.7 fold
- Mean fold variation (Pyrroline5 carboxylate reductase (PYCR1) mRNA, blood): +34 fold
- Mean fold variation (RANTES (SCYA5) mRNA, blood): −5.3 fold
- Mean fold variation (RSU (RSU1) mRNA, blood): −7.2 fold
- Mean fold variation (Ribosomal protein L 12 (RPL12) mRNA, blood): −4.8 fold
- Mean fold variation (Ribosomal protein S 7 (RPS7) mRNA, blood): −6.4 fold
- Mean fold variation (SABP1 (elk4) (ELK4) mRNA, blood): +6.4 fold
- Mean fold variation (Scaffold attachment protein (HNRPU) mRNA, blood): −7.1 fold
- Mean fold variation (Selectin P ligand SELPLG mRNA, blood): −17.1 fold
- Mean fold variation (Serine Threonine phosphatase (PPP2R1B) mRNA, blood): +5.1 fold
- Mean fold variation (Single stranded DNA binding (SSBP) mRNA, blood): −8.5 fold
- Mean fold variation (Small nuclear ribonucleoprotein (SNRPN) mRNA, blood): −2 fold
- Mean fold variation (TAX REB 67 (ATF4) mRNA, blood): −22.6 fold
- Mean fold variation (TF lia transcription factor mRNA, blood): −16.4 fold
- Mean fold variation (TRMP2 Apolipoprotein J mRNA, blood): −6.8 fold
- Mean fold variation (Taurine transporter (SLC6A6) mRNA, blood): +4.4 fold
- Mean fold variation (Thioredoxin binding protein/Vit. D3 Up regulated protein (VDUP1) mRNA, blood): −5.4 fold
- Mean fold variation (Thromboxane A2 receptor (TBXA2R) mRNA, blood): −9.3 fold
- Mean fold variation (Thymosin beta (TMSB10) mRNA, blood): −7.5 fold
- Mean fold variation (Transaldolase mRNA, blood): −3.1 fold
- Mean fold variation (Translationally controlled tumor protein (TPT1) mRNA, blood): −3.2 fold
- Mean fold variation (Tyrosine phosphatase (huPP1) (PTP4A2) mRNA, blood): −5.7 fold
- Mean fold variation (Ubiquitin like protein (UBL4) mRNA, blood): −21.5 fold
- Mean fold variation (Vacuolar H + ATPase (ATP6N1A) mRNA, blood): +1.8 fold
- Mean fold variation (Vimentin (VIM) mRNA, blood): −7 fold
- Mean fold variation (Wilms tumor related protein mRNA, blood): −4 fold
- Mean fold variation (Zinc finger protein ZNF141 mRNA, blood): +3.2 fold
- CD8+ T lymphocytes in the blood (after treatment): slightly more represented
- proportion of T cell expressing CD3 in the blood (after treatment): does not affect
- expression of genes of the Macrolactam target pathway (Macrophilin 12), cellular activation and proliferation (Histone2, Histone 3.3, cyclin D2) (among blood cells): down regulate
- FKBP12 at the level of RNA synthesis (blood): strongly down regulated
- Kallistatin expression (blood): up-regulated
- genes necessary for chemotaxis and cellular migration, including LFA-1, P-Selectin ligand and L-Selectin (blood cells): dramatic down regulation
- CD3 expression level (blood, after treatment): unchanged
- granzyme A and B expression (blood, after treatment): increase
- genes involved in any known adverse side effect or toxicity pathway (expression profile, blood): no consistent pattern of alteration; also recorded: No gene linked to a possible adverse effect or to a toxicity pathway was found to be regulated
- toxic effect in the expression profile (expression profile, blood): No obvious toxic effect
- Mean fold variation (pM5 (PM5) mRNA, blood): −5.7 fold
